Results as given in ChEMBL document CHEMBL5046268, “Synthesis, Biological Evaluation, and Molecular Modeling Studies of 3,4-Diarylpyrazoline Series of Compounds as Potent, Nonbrain Penetrant Antagonists of Cannabinoid-1 (CB1R) Receptor with Reduced Lipophilicity” (J Med Chem, 2022).
The source made the active and inactive calls. The calls are words filed in the database; no cut-off is given here.

Columns and labels:
Cannabinoid receptor 1 [1] = target: T1, Cannabinoid receptor 1 (Homo sapiens, UniProt P21554); assay: Displacement of [3H]- CP55940 from human CB1R expressed in CHO-K1 cells membrane by Cheng-Prusoff equation analysis; assay type: cell membranes, Cell membrane
T1 sequence (P21554 whole entry): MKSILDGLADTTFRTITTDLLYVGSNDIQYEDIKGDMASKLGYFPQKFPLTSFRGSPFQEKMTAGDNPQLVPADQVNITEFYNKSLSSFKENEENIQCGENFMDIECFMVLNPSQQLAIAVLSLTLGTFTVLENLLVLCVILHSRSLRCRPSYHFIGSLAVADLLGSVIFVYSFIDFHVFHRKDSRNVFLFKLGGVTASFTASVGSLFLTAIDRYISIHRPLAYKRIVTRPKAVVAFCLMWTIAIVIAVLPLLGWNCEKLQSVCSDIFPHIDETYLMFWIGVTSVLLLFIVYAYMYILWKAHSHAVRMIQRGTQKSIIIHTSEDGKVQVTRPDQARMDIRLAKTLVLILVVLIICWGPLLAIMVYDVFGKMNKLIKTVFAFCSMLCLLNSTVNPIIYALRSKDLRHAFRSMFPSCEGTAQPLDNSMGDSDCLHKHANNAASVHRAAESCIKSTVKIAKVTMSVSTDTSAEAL

Cannabinoid receptor 2 = Cannabinoid receptor 2 (Homo sapiens, UniProt P34972); assay: Displacement of [3H]- CP55940 from human CB2R expressed in CHO-K1 cells membrane by Cheng-Prusoff equation analysis; assay type: cell membranes, Cell membrane
Chain of Cannabinoid receptor 2 (P34972 whole entry): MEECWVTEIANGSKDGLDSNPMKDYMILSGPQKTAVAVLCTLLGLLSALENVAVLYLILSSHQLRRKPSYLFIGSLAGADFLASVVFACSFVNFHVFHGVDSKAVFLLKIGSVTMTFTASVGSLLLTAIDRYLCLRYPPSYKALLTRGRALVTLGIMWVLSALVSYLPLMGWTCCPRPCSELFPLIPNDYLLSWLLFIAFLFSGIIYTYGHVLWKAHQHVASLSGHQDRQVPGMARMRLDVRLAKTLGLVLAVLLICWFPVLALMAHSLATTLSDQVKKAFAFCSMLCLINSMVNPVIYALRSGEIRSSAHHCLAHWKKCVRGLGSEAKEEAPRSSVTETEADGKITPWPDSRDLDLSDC

Cannabinoid receptor 1 [2] = target: T1, Cannabinoid receptor 1; assay: Antagonist activity at human CB1R expressed in CHO-K1 cell membranes assessed as stimulation of [35S]-GTPgammaS binding by liquid scintillation counting method; assay type: functional, Cell membrane
[3] = target: Nitric oxide synthase, inducible (Homo sapiens) (UniProt P35228); assay: Inhibition of recombinant iNOS (unknown origin) assessed as reduction in L-[3H]-citrulline level using L-[3H]-arginine as substrate at 10 uM by Enzymatic NOS activity assay
Chain of Nitric oxide synthase, inducible (Homo sapiens) (P35228 whole entry): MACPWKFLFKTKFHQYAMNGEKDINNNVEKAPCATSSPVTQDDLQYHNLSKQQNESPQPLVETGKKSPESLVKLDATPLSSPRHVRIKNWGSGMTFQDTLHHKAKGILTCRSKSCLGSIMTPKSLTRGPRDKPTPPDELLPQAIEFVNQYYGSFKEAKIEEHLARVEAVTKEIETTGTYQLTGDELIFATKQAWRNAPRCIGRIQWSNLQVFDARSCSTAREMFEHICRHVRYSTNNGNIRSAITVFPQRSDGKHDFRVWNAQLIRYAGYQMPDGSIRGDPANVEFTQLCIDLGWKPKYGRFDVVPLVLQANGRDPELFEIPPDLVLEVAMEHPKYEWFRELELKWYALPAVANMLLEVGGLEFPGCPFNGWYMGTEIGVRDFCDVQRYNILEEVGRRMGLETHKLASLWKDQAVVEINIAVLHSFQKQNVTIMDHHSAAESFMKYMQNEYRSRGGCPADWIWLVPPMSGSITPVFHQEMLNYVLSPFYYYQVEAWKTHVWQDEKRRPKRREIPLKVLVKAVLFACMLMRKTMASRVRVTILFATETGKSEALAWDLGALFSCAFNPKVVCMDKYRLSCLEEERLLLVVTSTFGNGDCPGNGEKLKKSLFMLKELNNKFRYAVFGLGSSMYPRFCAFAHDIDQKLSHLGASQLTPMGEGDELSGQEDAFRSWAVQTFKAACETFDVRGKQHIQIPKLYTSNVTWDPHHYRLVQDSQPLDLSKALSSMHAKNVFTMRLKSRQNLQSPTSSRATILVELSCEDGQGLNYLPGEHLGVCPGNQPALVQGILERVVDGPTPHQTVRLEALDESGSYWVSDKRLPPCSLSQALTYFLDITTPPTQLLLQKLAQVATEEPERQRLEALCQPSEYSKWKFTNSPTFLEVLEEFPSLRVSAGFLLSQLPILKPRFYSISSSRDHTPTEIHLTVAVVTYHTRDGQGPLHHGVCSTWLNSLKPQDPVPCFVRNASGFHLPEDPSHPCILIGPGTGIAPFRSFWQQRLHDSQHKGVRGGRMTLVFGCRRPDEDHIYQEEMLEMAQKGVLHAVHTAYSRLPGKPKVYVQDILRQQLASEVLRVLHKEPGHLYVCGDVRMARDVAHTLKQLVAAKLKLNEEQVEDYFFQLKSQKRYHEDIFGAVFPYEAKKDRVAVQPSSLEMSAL

Mus musculus [4] = assay: Anti-obesity activity in high fat diet-induced obese C57BL/6J mouse assessed as reduction in body weight at 3 mg/kg, ip dosed daily for 1 week; assay type: functional; settings: 168 h, time 1 weeks
[5] = Stability in C57BL/6J mouse plasma assessed as half life at 3 mg/kg, ip by LC-MS/MS analysis; assay type: ADME, organism-based
Cannabinoid receptor 1 [6] = target: T1, Cannabinoid receptor 1; assay: Inverse agonist activity at human CB1R expressed in CHO-K1 cell membrane assessed as […] in [35S]GTPgammaS binding; assay type: functional, cell membranes
[7] = Protein binding in human plasma assessed as […] at 5 uM for 4 hrs by LC-MS/MS analysis; assay type: ADME, cell-free; settings: read-out: PPB
[8] = Microsomal stability in human liver microsomes assessed as half life at 3 mg/kg, ip by LC-MS/MS analysis; assay type: ADME, Microsome
Mus musculus [9] = assay: Anti-obesity activity in high fat diet-induced obese C57BL/6J mouse assessed as reduction in food intake at 3 mg/kg, ip dosed daily for 1 week; assay type: functional, organism-based; settings: time 1.0 weeks
[10] = Protein binding in mouse plasma assessed as […] at 5 uM and incubated for 4 hrs by LC-MS/MS analysis; assay type: ADME, cell-free; settings: read-out: PPB
[11] = Microsomal stability in C57BL/6J mouse liver microsomes assessed as half life at 3 mg/kg, ip by LC-MS/MS analysis; assay type: ADME, Microsome
[12] = Drug distribution in C57BL/6J mouse liver at 10 mg/kg, ip incubated for 1 hrs by LC/MS/MS analysis; assay type: ADME, organism-based; settings: in vivo
[13] = Drug distribution in C57BL/6J mouse brain at 10 mg/kg, ip incubated for 1 hrs by LC/MS/MS analysis; assay type: ADME, organism-based; settings: in vivo
[14] = Drug distribution in C57BL/6J mouse plasma at 10 mg/kg, ip incubated for 1 hrs by LC/MS/MS analysis; assay type: ADME, organism-based; settings: in vivo
[15] = Ratio of drug level in C57BL/6J mouse brain to plasma at 10 mg/kg, ip incubated for 1 hrs by LC/MS/MS analysis; assay type: ADME, organism-based; settings: read-out: BPR
Mus musculus [16] = assay: Anti-obesity activity in high fat diet-induced obese C57BL/6J mouse assessed as reduction in body weight at 10 mg/kg, ip measured every daily for 1 weeks; assay type: functional; settings: 168 h
Mus musculus [17] = assay: Anti-obesity activity in high fat diet-induced obese C57BL/6J mouse assessed as reduction in food intake at 10 mg/kg, ip measured every daily for 1 weeks; assay type: functional, organism-based

Structure (SMILES)	Ki (Cannabinoid receptor 1 [1]; read-out: Ki) [nM]	Ki (Cannabinoid receptor 2; read-out: Ki) [nM]	IC50 (Cannabinoid receptor 1 [2]; read-out: IC50) [nM]	further results
CS/C(N)=N/C(=N/S(=O)(=O)N1CCC(C(F)(F)F)CC1)N1C[C@@H](c2ccccc2)C(c2ccc(Cl)cc2)=N1	> 1000	> 1000		IC50 (Cannabinoid receptor 1 [2]; cho-k1): Not Active
CCN(CC)S(=O)(=O)/N=C(/N=C(\N)c1ccc(Cl)cc1)N1CC(c2ccccc2)C(c2ccc(Cl)cc2)=N1 (configuration not stated)	10.8	70	86	inhibition [3]: Active
C/C(N)=N\C(=N\S(=O)(=O)N1CCCCC1)N1C[C@H](c2ccccc2)C(c2ccc(Cl)cc2)=N1	1.6	43	4	inhibition in vivo at 3 mg/kg (Mus musculus [4]): 8%; half-life [5]: < 120 min; IC50 (Cannabinoid receptor 1 [6]): 2 nM; fraction unbound at 4 h, 5 µM [7]: ≤ 0.006; half-life [8]: > 2 min; Activity (Mus musculus [9]): Active; fraction unbound at 4 h, 5 µM [10]: ≤ 0.006; half-life [11]: > 2 min
N/C(=N\C(=N\S(=O)(=O)N1CCC(F)(F)CC1)N1CC(c2ccccc2)C(c2ccc(Cl)cc2)=N1)c1ccc(F)cc1 (configuration not stated)	3.3	28	4.4	
C/C(N)=N\C(=N\S(=O)(=O)N1CCC(F)(F)CC1)N1CC(c2ccccc2)C(c2ccc(Cl)cc2)=N1 (configuration not stated)	3.4	> 100	15	
CC(C)(C)/C(N)=N\C(=N\S(=O)(=O)N1CCCCC1)N1CC(c2ccccc2)C(c2ccc(Cl)cc2)=N1 (configuration not stated)	23	> 1000	129	
CS/C(N)=N/C(=N/S(=O)(=O)N1CCOCC1)N1CC(c2ccccc2)C(c2ccc(Cl)cc2)=N1 (configuration not stated)	41	> 1000	91	
C/C(N)=N\C(=N\S(=O)(=O)N1CCCCC1)N1C[C@@H](c2ccccc2)C(c2ccc(Cl)cc2)=N1	610	> 1000		IC50 (Cannabinoid receptor 1 [2]; cho-k1): Not Active
CCN(CC)S(=O)(=O)/N=C(/N=C(\N)C(C)(C)C)N1CC(c2ccccc2)C(c2ccc(Cl)cc2)=N1 (configuration not stated)	10	> 1000	375	inhibition [3]: Active
C/C(N)=N/C(=N/S(=O)(=O)N1CCOCC1)N1CC(c2ccccc2)C(c2ccc(Cl)cc2)=N1 (configuration not stated)	31	> 1000	63	
N/C(=N\C(=N\S(=O)(=O)N1CCC(C(F)(F)F)CC1)N1CC(c2ccccc2)C(c2ccc(Cl)cc2)=N1)c1ccc(Cl)cc1 (configuration not stated)	5.5	20	5.4	
N/C(=N/C(=N/S(=O)(=O)N1CCCCC1)N1CC(c2ccccc2)C(c2ccc(Cl)cc2)=N1)c1ccc(F)cc1 (configuration not stated)	6.4	36	4	
N/C(=N\C(=N\S(=O)(=O)N1CCCC1)N1CC(c2ccccc2)C(c2ccc(Cl)cc2)=N1)c1ccc(F)cc1 (configuration not stated)	10.5	> 1000	115	inhibition [3]: Active
N/C(=N/C(=N/S(=O)(=O)N1CCCCC1)N1CC(c2ccccc2)C(c2ccc(Cl)cc2)=N1)c1ccc(Cl)cc1 (configuration not stated)	7.8	17	6	
CCN(CC)S(=O)(=O)/N=C(/N=C(\N)SC)N1CC(c2ccccc2)C(c2ccc(Cl)cc2)=N1 (configuration not stated)	13	70	388	inhibition [3]: Active
CS/C(N)=N/C(=N/S(=O)(=O)N1CCCC1)N1CC(c2ccccc2)C(c2ccc(Cl)cc2)=N1 (configuration not stated)	23	> 1000	462	inhibition [3]: Active
N/C(=N\C(=N\S(=O)(=O)N1CCC(F)(F)CC1)N1CC(c2ccccc2)C(c2ccc(Cl)cc2)=N1)c1ccc(Cl)cc1 (configuration not stated)	5.5	> 1000	4.2	Drug uptake [12]: Active; IC50 (Cannabinoid receptor 1 [6]): 2.5 nM; Drug uptake [13]: Active; Drug uptake [14]: Active; Kp at 1 h [15]: 0.14
CCN(CC)S(=O)(=O)/N=C(/N=C(\N)c1ccc(F)cc1)N1CC(c2ccccc2)C(c2ccc(Cl)cc2)=N1 (configuration not stated)	5.5	> 1000	108	inhibition [3]: Active

Structure (SMILES)	Ki (Cannabinoid receptor 1 [1]; read-out: Ki) [nM]	Ki (Cannabinoid receptor 2; read-out: Ki) [nM]	IC50 (Cannabinoid receptor 1 [2]; read-out: IC50) [nM]	further results
CS/C(N)=N\C(=N\S(=O)(=O)N1CCCCC1)N1CC(c2ccccc2)C(c2ccc(Cl)cc2)=N1 (configuration not stated)	15	> 100	166	
CS/C(N)=N/C(=N/S(=O)(=O)N1CCC(C(F)(F)F)CC1)N1CC(c2ccccc2)C(c2ccc(Cl)cc2)=N1 (configuration not stated)	2.4	> 100	3.6	Drug uptake [12]: Active; Drug uptake [13]: Active; Drug uptake [14]: Active; Kp at 1 h [15]: 0.036
CC(C)(C)/C(N)=N/C(=N/S(=O)(=O)N1CCC(C(F)(F)F)CC1)N1CC(c2ccccc2)C(c2ccc(Cl)cc2)=N1 (configuration not stated)	1.1	> 100	2	Drug uptake [12]: Active; IC50 (Cannabinoid receptor 1 [6]): 1.8 nM; Drug uptake [13]: Active; Drug uptake [14]: Active; Kp at 1 h [15]: 0.15
CC(C)(C)/C(N)=N/C(=N/S(=O)(=O)N1CCC(F)(F)CC1)N1CC(c2ccccc2)C(c2ccc(Cl)cc2)=N1 (configuration not stated)	21	> 1000	10	Drug uptake [12]: Active; IC50 (Cannabinoid receptor 1 [6]): 3.2 nM; Drug uptake [13]: Active; Drug uptake [14]: Active; Kp at 1 h [15]: 0.14
C/C(N)=N/C(=N/S(=O)(=O)N1CCCC1)N1CC(c2ccccc2)C(c2ccc(Cl)cc2)=N1 (configuration not stated)	7.4	> 1000	137	inhibition [3]: Active
N/C(=N\C(=N\S(=O)(=O)N1CCCC1)N1CC(c2ccccc2)C(c2ccc(Cl)cc2)=N1)c1ccc(Cl)cc1 (configuration not stated)	75.3	> 1000	427	inhibition [3]: Active
CC(C)(C)/C(N)=N/C(=N/S(=O)(=O)N1CCOCC1)N1CC(c2ccccc2)C(c2ccc(Cl)cc2)=N1 (configuration not stated)	> 100	> 1000	34	
N/C(=N\C(=N\S(=O)(=O)N1CCOCC1)N1CC(c2ccccc2)C(c2ccc(Cl)cc2)=N1)c1ccc(F)cc1 (configuration not stated)	39.9	> 1000	19	
C/C(N)=N/C(=N/S(=O)(=O)N1CCC(C(F)(F)F)CC1)N1CC(c2ccccc2)C(c2ccc(Cl)cc2)=N1 (configuration not stated)	3.9	> 100	273	
CCN(CC)S(=O)(=O)/N=C(/N=C(/C)N)N1CC(c2ccccc2)C(c2ccc(Cl)cc2)=N1 (configuration not stated)	5.9	> 100	1.9	Drug uptake [12]: Active; Drug uptake [13]: Active; Drug uptake [14]: Active; inhibition [3]: Active; Kp at 1 h [15]: 0.025
CC(C)(C)/C(N)=N/C(=N/S(=O)(=O)N1CCCC1)N1CC(c2ccccc2)C(c2ccc(Cl)cc2)=N1 (configuration not stated)	> 1000	> 1000	61	inhibition [3]: Active
N/C(=N\C(=N\S(=O)(=O)N1CCOCC1)N1CC(c2ccccc2)C(c2ccc(Cl)cc2)=N1)c1ccc(Cl)cc1 (configuration not stated)	19.2	> 1000	25	
C/C(N)=N\C(=N\S(=O)(=O)N1CCCCC1)N1CC(c2ccccc2)C(c2ccc(Cl)cc2)=N1 (configuration not stated)	3	> 100	57	Drug uptake [12]: Active; Drug uptake [13]: Active; Drug uptake [14]: Active; Kp at 1 h [15]: 0.04
CS/C(N)=N/C(=N/S(=O)(=O)N1CCC(C(F)(F)F)CC1)N1C[C@H](c2ccccc2)C(c2ccc(Cl)cc2)=N1	0.7	334	2	inhibition in vivo at 10 mg/kg (Mus musculus [16]): 8%; half-life [5]: < 120 min; Activity (Mus musculus [17]): Active; IC50 (Cannabinoid receptor 1 [6]): 1.6 nM; fraction unbound at 4 h, 5 µM [7]: ≤ 0.006; fraction unbound at 4 h, 5 µM [10]: ≤ 0.006
CS/C(N)=N\C(=N\S(=O)(=O)N1CCC(F)(F)CC1)N1CC(c2ccccc2)C(c2ccc(Cl)cc2)=N1 (configuration not stated)	14	> 100	127	
CCN(CC)S(=O)(=O)/N=C(/N=C(/C)N)N1C[C@H](c2ccccc2)C(c2ccc(Cl)cc2)=N1	1.2	66	1.2	inhibition in vivo at 10 mg/kg (Mus musculus [16]): 8%; half-life [5]: < 120 min; Activity (Mus musculus [17]): Active; IC50 (Cannabinoid receptor 1 [6]): 0.8 nM; fraction unbound at 4 h, 5 µM [7]: ≤ 0.006; half-life [8]: > 2 min; fraction unbound at 4 h, 5 µM [10]: ≤ 0.006; half-life [11]: > 2 min
CCN(CC)S(=O)(=O)/N=C(/N=C(/C)N)N1C[C@@H](c2ccccc2)C(c2ccc(Cl)cc2)=N1				Ki (Cannabinoid receptor 1 [1]; cho-k1): Not Active; Ki (Cannabinoid receptor 2; cho-k1): Not Active; IC50 (Cannabinoid receptor 1 [2]; cho-k1): Not Active
N/C(=N\C(=N\S(=O)(=O)N1CCC(C(F)(F)F)CC1)N1CC(c2ccccc2)C(c2ccc(Cl)cc2)=N1)c1ccc(F)cc1 (configuration not stated)	19.8	14	2.77	
